Reference: patent US20240262795A1, “PYRAZINE COMPOUNDS AS INHIBITORS OF FLT3” (Biomea Fusion, Inc., priority 2021, published 2024)

Tests used:
[1] = target: T1, WT FLT3 (Homo sapiens, UniProt P36888); assay: WT FLT3 Lance Ultra TR-FRET kinase assay; assay type: biochemical
T1 construct: purchased Invitrogen PR4666C
T1 sequence (P36888 564-993 limits assumed): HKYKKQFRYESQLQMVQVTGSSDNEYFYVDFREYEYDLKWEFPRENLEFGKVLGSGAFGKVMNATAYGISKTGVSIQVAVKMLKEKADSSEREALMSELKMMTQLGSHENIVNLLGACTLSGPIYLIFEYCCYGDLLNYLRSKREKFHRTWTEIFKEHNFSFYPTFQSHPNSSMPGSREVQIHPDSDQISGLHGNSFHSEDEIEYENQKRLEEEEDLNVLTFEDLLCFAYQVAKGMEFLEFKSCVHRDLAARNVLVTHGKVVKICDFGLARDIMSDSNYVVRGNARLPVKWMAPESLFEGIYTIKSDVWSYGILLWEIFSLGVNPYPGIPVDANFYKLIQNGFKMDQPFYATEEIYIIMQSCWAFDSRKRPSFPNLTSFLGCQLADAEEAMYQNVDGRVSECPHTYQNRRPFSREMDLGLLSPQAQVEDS
From the text: (§1) High throughput 384-well Lance Ultra TR-FRET based kinase assays were established for the WT FLT3 and FLT3-ITD enzymes and employed a ULight-labeled peptide […] and FLT3 proteins labelled with Eu-conjugated antibody […] (WuXi Aptec). The principle of TR-FRET is based on transfer of energy between a donor and acceptor fluorophore that results when the fluorophores are within close proximity (˜100 Å) of each other. Recombinant WT FLT3 (#PR4666C, M.W. 48.6 kDa) was purchased from Invitrogen and FLT3-ITD (FLT3-ITD-W51, #F-12-12CG-10, M.W. 76 kDa) was purchased from Signalchem. Optimal assay conditions for the WT FLT3 enzyme assay were as follows: 0.5 nM FLT3 protein, 50 nM ULight-JAK-1 (Tyr1023) substrate peptide (PerkinElmer #TRF0121), 100 μM ATP, 60 min reaction time. Optimal assay conditions for the FLT3-ITD enzyme assay were as follows: 0.0625 nM FLT3-ITD protein, 50 nM ULight-JAK-1 (Tyr1023) substrate peptide, 50 μM ATP, 90 min reaction time. Briefly, 11 dose 3× serial dilutions were prepared for the test compounds and the reference compound and 100 nanoliters transferred to appropriate wells of 384-well assay plates. Five microliters of 2× enzyme/peptide were added into assay wells, assay plates centrifuged at 1000 rpm for about 30 seconds, sealed with sealing film and incubated for 30 min at 23° C. Assay buffer comprised 50 mM HEPES (pH 7.5), 1 mM EDTA, 0.01% Brij-35, 10 mM MgCl2 and 2 mM DTT. Next 5 μl of a 2× ATP mixture were added into the assay wells and the plates centrifuged at 1000 rpm about 30 seconds, sealed with sealing film and incubated for 23° C. for appropriate duration. Following assay incubation (30 min for WT FLT3 and 60 min for FLT3-ITD) 10 μl 2× Detection Mixture (Eu-W1024 Anti-phosphotyrosine (PT66) 2 nM and EDTA 10 mM) was added to assay wells, assay plates centrifuge at 1000 rpm about 1 minutes, sealed with sealing film and incubated at 23° C. for 60 minutes. Assay plates were read on a Perkin Elmer Envision reader at two wavelengths (665/615) and the ratio of […] calculated.
(§2) Data was expressed as % of inhibition relative to the vehicle control and calculated as follows:
(§3) Results were analyzed by XLFIT5 as % inhibition vs. log [compound concentration] and IC50 values were calculated by non-linear regression using four parameter-logistic equation. Fit=(A+((B−A)/(1+((C/x)^D)))). Res=(y−fit).

[2] = test system: MOLM-13; assay: Proliferation inhibition, CellTiter-Glo, MOLM-13; assay type: cell-based, human; details: Homo sapiens, 96 h; MOLM-13 cells, IC50 (4 days), CellTiter-Glo; read-out: MOLM-13 IC50
Method in brief: (§4)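 About 10,000 cells per well in RPMI-1640 with 10% FBS. Compounds added 2 h after seeding at eight concentrations in duplicate (0.2% DMSO as 100% proliferation), then incubated ~96 h at 37° C, 5% CO2. ATP measured by CellTiter-Glo luminescence; IC50 from four-parameter logistic fit.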

[3] = target: T2, FLT3-ITD (Homo sapiens, UniProt P36888, DUP595-601); assay: FLT3-ITD Lance Ultra TR-FRET kinase assay; assay type: biochemical
T2 construct: purchased Signalchem F-12-12CG-10
T2 sequence (P36888 with tags, fused parts or gaps DUP595-601 limits assumed): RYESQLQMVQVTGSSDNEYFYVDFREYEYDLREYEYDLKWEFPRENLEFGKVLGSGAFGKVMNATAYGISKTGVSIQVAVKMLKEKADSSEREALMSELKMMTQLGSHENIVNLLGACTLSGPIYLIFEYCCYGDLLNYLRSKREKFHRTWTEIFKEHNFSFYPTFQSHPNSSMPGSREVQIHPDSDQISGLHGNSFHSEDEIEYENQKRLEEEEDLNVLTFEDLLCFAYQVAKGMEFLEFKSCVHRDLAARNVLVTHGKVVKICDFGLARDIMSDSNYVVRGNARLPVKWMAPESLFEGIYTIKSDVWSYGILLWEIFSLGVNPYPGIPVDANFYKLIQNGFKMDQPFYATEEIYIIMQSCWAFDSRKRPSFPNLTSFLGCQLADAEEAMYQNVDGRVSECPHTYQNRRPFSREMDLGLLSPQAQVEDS
From the text: as §1, §2, §3

[4] = test system: MV-4-11; assay: Proliferation inhibition, CellTiter-Glo, MV-4-11; assay type: cell-based, human; details: Homo sapiens, MV4-11, 96 h; MV-4:11 cells, IC50 (4 days), CellTiter-Glo; read-out: MV-4:11 IC50
Method in brief: as §4

[5] = test system: K-562; assay: Proliferation inhibition, CellTiter-Glo, K-562; assay type: cell-based, human; details: Homo sapiens, K562, 96 h; K-562 cells, IC50 (4 days), CellTiter-Glo; read-out: K-562 IC50
Method in brief: as §4

| Compound | IC50 [1] [nM] | IC50 [2] [nM] | IC50 [3] [nM] | IC50 [4] [nM] | IC50 [5] [nM] |
| --- | --- | --- | --- | --- | --- |
| CCc1nc(Nc2cccc([C@H](C)CNC(=O)CN(C)C(=O)/C=C/CN3CCC3)c2)c(C(N)=O)nc1CC [Compound 519, (S,E)-3-((3-(1-(2-(4-(azetidin-1-yl)-N-methylbut-2-enamido)acetamido)propan-2-yl)phenyl)amino)-5,6-diethylpyrazine-2-carboxamide] | > 1 | 10 to 100 | > 1 | 1 to 10 | > 500 |
| CCc1nc(C(N)=O)c(Nc2cccc([C@@H](C)CNC(=O)CN(C)C(=O)/C=C/CN3CCC3)c2)nc1CC(C)C [Compound 517, (R, E)-3-((3-(1-(2-(4-(azetidin-1-yl)-N-methylbut-2-enamido)acetamido)propan-2-yl)phenyl)amino)-6-ethyl-5-isobutylpyrazine-2-carboxamide] | 0.501 to 1 | 1 to 10 | 0.501 to 1 | 1 to 10 | > 500 |
| CCc1nc(C(N)=O)c(Nc2cc(CCNC(=O)[C@H](C)N(C)C(=O)/C=C/CN(C)C)cc(OC)c2)nc1N(C)C [Compound 143] | 0.101 to 0.2 | < 1 | 0.101 to 0.2 | < 1 | > 500 |
| CCc1nc(C(N)=O)c(Nc2cc(CCNC(=O)[C@H](C)N(C)C(=O)/C=C/CN(C)C)cc(OC)c2)nc1C1CC1 [Compound 144, (S,E)-5-cyclopropyl-3-((3-(2-(2-(4-(dimethylamino)-N-methylbut-2-enamido)propanamido)ethyl)-5-methoxyphenyl)amino)-6-ethylpyrazine-2-carboxamide] | 0.201 to 0.5 | < 1 | 0.201 to 0.5 | < 1 | > 500 |
| C=CC(=O)N(C)[C@@H](C)C(=O)NCCc1cccc(Nc2nc(N(C)C)c(CC)nc2C(N)=O)c1 [Compound 213, (S)-5-(dimethylamino)-6-ethyl-3-((3-(2-(2-(N-methylacrylamido)propanamido)ethyl)phenyl)amino)pyrazine-2-carboxamide] | 0.501 to 1 | 1 to 10 | 0.101 to 0.2 | < 1 | > 500 |
| Cc1nc(C(N)=O)c(Nc2cccc(CCNC(=O)CN(C)C(=O)/C=C/CN(C)C)c2)nc1C1CC1 [Compound 241, (E)-5-cyclopropyl-3-((3-(2-(2-(4-(dimethylamino)-N-methylbut-2-enamido)acetamido)ethyl)phenyl)amino)-6-methylpyrazine-2-carboxamide] | > 1 | 1 to 10 | 0.201 to 0.5 | 1 to 10 | > 500 |
| CCc1nc(C(N)=O)c(Nc2cccc(CCNC(=O)[C@H](C)N(C)C(=O)/C=C/CN(C)C)c2)nc1C1CC1 [Compound 138, (S,E)-5-cyclopropyl-3-((3-(2-(2-(4-(dimethylamino)-N-methylbut-2-enamido)propanamido)ethyl)phenyl)amino)-6-ethylpyrazine-2-carboxamide] | 0.201 to 0.5 | 1 to 10 | 0.201 to 0.5 | < 1 | > 500 |
| C#Cc1nc(C(N)=O)c(Nc2cccc(CCNC(=O)CN(C)C(=O)/C=C/CN(C)C)c2)nc1N(C)C(C)C [Compound 327, (E)-3-((3-(2-(2-(4-(dimethylamino)-N-methylbut-2-enamido)acetamido)ethyl)phenyl)amino)-6-ethynyl-5-(isopropyl (methyl)amino) pyrazine-2-carboxamide] | 0.501 to 1 | 1 to 10 | 0.201 to 0.5 | 10 to 100 | > 500 |
| CCc1nc(C(N)=O)c(Nc2cc(F)cc(CCNC(=O)[C@H](C)N(C)C(=O)/C=C/CN(C)C)c2)nc1N(C)C [Compound 158, (S,E)-5-(dimethylamino)-3-((3-(2-(2-(4-(dimethylamino)-N-methylbut-2-enamido)propanamido)ethyl)-5-fluorophenyl)amino)-6-ethylpyrazine-2-carboxamide] | 0.101 to 0.2 | < 1 | 0.101 to 0.2 | < 1 | > 500 |
| CCc1nc(C(N)=O)c(Nc2cccc(CCNC(=O)[C@H](C)NC(=O)/C=C/CN(C)C)c2)nc1N(C)C(C)C [Compound 502, (S,E)-3-((3-(2-(2-(4-(dimethylamino)but-2-enamido)propanamido)ethyl)phenyl)amino)-6-ethyl-5-(isopropyl(methyl)amino) pyrazine-2-carboxamide] | 0.101 to 0.2 | < 1 | 0.201 to 0.5 | < 1 | > 500 |
| C=CC(=O)N(C)CC(=O)NCCc1cc(Nc2nc(N(C)CC)c(CC)nc2C(N)=O)ccn1 [Compound 515, 6-ethyl-5-(ethyl(methyl)amino)-3-((2-(2-(2-(N-methylacrylamido)acetamido)ethyl)pyridin-4-yl)amino) pyrazine-2-carboxamide] | 0.501 to 1 | 1 to 10 | 0.101 to 0.2 | < 1 | > 500 |
| CCc1nc(C(N)=O)c(Nc2cccc(CCNC(=O)CN(C)C(=O)/C=C/CN3CCC3)c2)nc1CC(C)C [Compound 601, (E)-3-((3-(2-(2-(4-(azetidin-1-yl)-N-methylbut-2-enamido)acetamido)ethyl)phenyl)amino)-6-ethyl-5-isobutylpyrazine-2-carboxamide] | > 1 | 1 to 10 | 0.501 to 1 | < 1 | > 500 |
| CCc1nc(C(N)=O)c(Nc2ccnc(CCNC(=O)CN(C)C(=O)/C=C/CN(C)C)c2)nc1N(C)CC [Compound 606, (E)-3-((2-(2-(2-(4-(dimethylamino)-N-methylbut-2-enamido)acetamido)ethyl)pyridin-4-yl)amino)-6-ethyl-5-(ethyl(methyl)amino)pyrazine-2-carboxamide] | 0.501 to 1 | 1 to 10 | 0.201 to 0.5 | < 1 | > 500 |
| CCc1nc(C(N)=O)c(Nc2cccc(CCNC(=O)[C@H](C)N(C)C(=O)/C=C/CN3CCC3)c2)nc1N(C)C [Compound 156, (S,E)-3-((3-(2-(2-(4-(azetidin-1-yl)-N-methylbut-2-enamido)propanamido)ethyl)phenyl)amino)-5-(dimethylamino)-6-ethylpyrazine-2-carboxamide] | 0.201 to 0.5 | < 1 | 0.201 to 0.5 | < 1 | > 500 |
